In general, pIC50 refers to −log10 of the IC50, conventionally taken in molar units.

pIC50: −log10 of the molar value.

For assay [1], the system named is L1210. In words: Concentration required to produce 50% reduction in the rate of proliferation of L1210 cells. It counts as functional, cell-based. Conditions: Mus musculus.
Assay [2] concerns HEp-2. As to the kind of experiment: Concentration required to produce 50% reduction in cloning of H.Ep.No.2 cells by 50%. It counts as functional, cell-based. Particulars: Homo sapiens.

Take `Nc1nc(F)nc2c1ncn2C1O[C@H](CO)[C@H](O)[C@H]1N` (stereo partly specified): the pIC50 in assay [1] is 3.92; in assay [2], 4.92.
For `[N-]=[N+]=N[C@H]1C(n2cnc3c(N)nc(F)nc32)O[C@H](CO)[C@@H]1O` (stereo partly specified) the same measures were 4.00 and 4.54.
In the case of `Nc1nc(Cl)nc2c1ncn2C1O[C@H](CO)[C@H](O)[C@H]1N` (stereo partly specified), the figures for the negative logarithm of the IC50 (pIC50) in assay [1] and in assay [2] were under 3.92 and 4.10, respectively.
Consider `Nc1nc(Cl)nc2c1ncn2C1O[C@H](CO)[C@H](O)[C@H]1Br` (stereo partly specified), for which the pIC50 in assay [1] and in assay [2] was under 3.96 each time.
As for `Nc1nc(Cl)nc2c1ncn2C1O[C@H](CO)[C@H](O)[C@H]1Cl` (stereo partly specified), the negative-log IC50 (pIC50) in assay [1] and in assay [2] was under 3.92 throughout.
As to `Nc1nc(Cl)nc2c1ncn2C1O[C@H](CO)[C@H](O)[C@H]1I` (stereo partly specified), the pIC50 in assay [1] and in assay [2] was under 4.00 throughout.
As to `[N-]=[N+]=N[C@H]1C(n2cnc3c(N)nc(Cl)nc32)O[C@H](CO)[C@@H]1O` (stereo partly specified), the negative logarithm of the IC50 (pIC50) in assay [1] and in assay [2] was under 3.92 throughout.
Take `Nc1nc(F)nc2c1ncn2C1O[C@H](CO)[C@H](O)[C@H]1Cl` (stereo partly specified): the pIC50 in assay [1] was 4.22; in assay [2], 4.00.

The values are drawn from ChEMBL document CHEMBL1124036 (J Med Chem, 1988).
